Experiments:
Assay type in all cases: cell-based
[1] = tested on: 4th stage larvae (L4) of Dirofilaria immitis; experiment: Dirofilaria immitis, L4 Stage (DiL4) In Vitro Assay; details: Dirofilaria immitis, 72 h, read-out: DiL4 Minimum Effective Dose (MED), approximately 72 hours incubation; L4 larvae assessed for survival or paralysis
[2] = tested on: third stage larvae of Haemonchus contortus; experiment: Haemonchus contortus L3 (HcL3) Assay; details: 96 h, read-out: HcL3 Minimum Effective Dose (MED)
[3] = tested on: microfilariae of Dirofilaria immitis; experiment: Dirofilaria immitis, Microfilaria (DiMF) In vitro Assay; details: 72 h, read-out: DiMF Minimum Effective Dose (MED), approximately 72 hours incubation, microfilariae assessed for survival or paralysis

`COC(C)(C)c1ccnn1Cc1ccc(C[C@H]2OC(=O)[C@H](CC(C)C)N(C)C(=O)[C@@H](C)OC(=O)[C@H](CC(C)C)N(C)C(=O)[C@@H](Cc3ccc(Cn4nccc4C(C)(C)OC)cc3)OC(=O)[C@H](CC(C)C)N(C)C(=O)[C@@H](C)OC(=O)[C@H](CC(C)C)N(C)C2=O)cc1` [Example 1b-220, (3S,6R,9S,12R,15S,18R,21S,24R)-3,9,15,21-tetraisobutyl-6,18-bis(4-((5-(2-methoxypropan-2-yl)-1H-pyrazol-1-yl)methyl)benzyl)-4,10,12,16,22,24-hexamethyl-1,7,13,19-tetraoxa-4,10,16,22-tetraazacyclotetracosan-2,5,8,11,14,17,20,23-octaone] gave a minimal effective concentration [1] of 0.001 to 0.01 µM, a minimal effective concentration [2] of 10 to 100 µM and a minimal effective concentration [3] of 0.001 to 0.01 µM.

With `CC(C)C[C@H]1C(=O)O[C@H](Cc2ccc(Cn3nccc3C3(C)COC3)cc2)C(=O)N(C)[C@@H](CC(C)C)C(=O)O[C@H](C)C(=O)N(C)[C@@H](CC(C)C)C(=O)O[C@H](Cc2ccc(Cn3nccc3C3(C)COC3)cc2)C(=O)N(C)[C@@H](CC(C)C)C(=O)O[C@H](C)C(=O)N1C` [Example 1b-221, (3S,6R,9S,12R,15S,18R,21S,24R)-3,9,15,21-tetraisobutyl-4,6,10,16,18,22-hexamethyl-12,24-bis(4-((5-(3-methyloxetan-3-yl)-1H-pyrazol-1-yl)methyl)benzyl)-1,7,13,19-tetraoxa-4,10,16,22-tetraazacyclotetracosan-2,5,8,11,14,17,20,23-octaone] the minimal effective concentration [1] was 0.001 to 0.01 µM, the minimal effective concentration [2] was 1 to 10 µM and the minimal effective concentration [3] was 0.001 to 0.01 µM.

Work on `CC(C)C[C@H]1C(=O)O[C@H](Cc2ccc(Cn3nccc3C3CC3C)cc2)C(=O)N(C)[C@@H](CC(C)C)C(=O)O[C@H](C)C(=O)N(C)[C@@H](CC(C)C)C(=O)O[C@H](Cc2ccc(Cn3nccc3C3CC3C)cc2)C(=O)N(C)[C@@H](CC(C)C)C(=O)O[C@H](C)C(=O)N1C` (stereo partly drawn) [Example 1b-222, (3S,6R,9S,12R,15S,18R,21S,24R)-3,9,15,21-tetraisobutyl-4,6,10,16,18,22-hexamethyl-12,24-bis(4-((5-(2-methylcyclopropyl)-1H-pyrazol-1-yl)methyl)benzyl)-1,7,13,19-tetraoxa-4,10,16,22-tetraazacyclotetracosan-2,5,8,11,14,17,20,23-octaone] yielded a minimal effective concentration [1] of 0.0001 to 0.001 µM, a minimal effective concentration [2] of no more than 1 µM and a minimal effective concentration [3] of 0.01 to 0.1 µM.

For `CC(C)C[C@H]1C(=O)O[C@H](Cc2ccc(C3(n4cc(Cl)cn4)CCC3)cc2)C(=O)N(C)[C@@H](CC(C)C)C(=O)O[C@H](C)C(=O)N(C)[C@@H](CC(C)C)C(=O)O[C@H](Cc2ccc(C3(n4cc(Cl)cn4)CCC3)cc2)C(=O)N(C)[C@@H](CC(C)C)C(=O)O[C@H](C)C(=O)N1C` [Example 1c-2, (3S,6R,9S,12R,15S,18R,21S,24R)-6,18-bis(4-(1-(4-chloro-1H-pyrazol-1-yl)cyclobutyl)benzyl)-3,9,15,21-tetraisobutyl-4,10,12,16,22,24-hexamethyl-1,7,13,19-tetraoxa-4,10,16,22-tetraazacyclotetracosan-2,5,8,11,14,17,20,23-octaone], the minimal effective concentration [1] was no more than 0.0001 µM, the minimal effective concentration [2] was no more than 1 µM and the minimal effective concentration [3] was 0.001 to 0.01 µM.

`CC(C)C[C@H]1C(=O)O[C@H](Cc2ccc(C(C3CC3)n3cc(OC(C)C)cn3)cc2)C(=O)N(C)[C@@H](CC(C)C)C(=O)O[C@H](C)C(=O)N(C)[C@@H](CC(C)C)C(=O)O[C@H](Cc2ccc(C(C3CC3)n3cc(OC(C)C)cn3)cc2)C(=O)N(C)[C@@H](CC(C)C)C(=O)O[C@H](C)C(=O)N1C` (stereo partly drawn) [Example 1c-5, (3S,6R,9S,12R,15S,18R,21S,24R)-6,18-bis(4-(cyclopropyl(4-isopropoxy-1H-pyrazol-1-yl)methyl)benzyl)-3,9,15,21-tetraisobutyl-4,10,12,16,22,24-hexamethyl-1,7,13,19-tetraoxa-4,10,16,22-tetraazacyclotetracosan-2,5,8,11,14,17,20,23-octaone] showed a minimal effective concentration [1] of 0.0001 to 0.001 µM, a minimal effective concentration [2] of no more than 1 µM and a minimal effective concentration [3] of 0.001 to 0.01 µM.

`CC(C)C[C@H]1C(=O)O[C@H](Cc2ccc(Cn3cc(Br)cn3)cc2)C(=O)N(C)[C@@H](CC(C)C)C(=O)O[C@H](C)C(=O)N(C)[C@@H](CC(C)C)C(=O)O[C@H](Cc2ccccc2)C(=O)N(C)[C@@H](CC(C)C)C(=O)O[C@H](C)C(=O)N1C` [Example 2-22, (3S,6R,9S,12R,15S,18R,21S,24R)-6-benzyl-18-(4-((4-bromo-1H-pyrazol-1-yl)methyl)benzyl)-3,9,15,21-tetraisobutyl-4,10,12,16,22,24-hexamethyl-1,7,13,19-tetraoxa-4,10,16,22-tetraazacyclotetracosan-2,5,8,11,14,17,20,23-octaone] was tested, and the minimal effective concentration [1] was 0.0001 to 0.001 µM, the minimal effective concentration [2] was 1 to 10 µM and the minimal effective concentration [3] was 0.001 to 0.01 µM.

`CC(C)C[C@H]1C(=O)O[C@H](Cc2ccc(Cn3cc(F)cn3)cc2)C(=O)N(C)[C@@H](CC(C)C)C(=O)O[C@H](C)C(=O)N(C)[C@@H](CC(C)C)C(=O)O[C@H](Cc2ccccc2)C(=O)N(C)[C@@H](CC(C)C)C(=O)O[C@H](C)C(=O)N1C` [Example 2-28, (3S,6R,9S,12R,15S,18R,21S,24R)-6-benzyl-18-(4-((4-fluoro-1H-pyrazol-1-yl)methyl)benzyl)-3,9,15,21-tetraisobutyl-4,10,12,16,22,24-hexamethyl-1,7,13,19-tetraoxa-4,10,16,22-tetraazacyclotetracosan-2,5,8,11,14,17,20,23-octaone] was tested, and the minimal effective concentration [1] was 0.0001 to 0.001 µM, the minimal effective concentration [2] was 1 to 10 µM and the minimal effective concentration [3] was 0.001 to 0.01 µM.

Work on `C#Cc1cnn(Cc2ccc(C[C@H]3OC(=O)[C@H](CC(C)C)N(C)C(=O)[C@@H](C)OC(=O)[C@H](CC(C)C)N(C)C(=O)[C@@H](Cc4ccccc4)OC(=O)[C@H](CC(C)C)N(C)C(=O)[C@@H](C)OC(=O)[C@H](CC(C)C)N(C)C3=O)cc2)c1` [Example 2-51, (3S,6R,9S,12R,15S,18R,21S,24R)-6-benzyl-18-(4-((4-ethynyl-1H-pyrazol-1-yl)methyl)benzyl)-3,9,15,21-tetraisobutyl-4,10,12,16,22,24-hexamethyl-1,7,13,19-tetraoxa-4,10,16,22-tetraazacyclotetracosan-2,5,8,11,14,17,20,23-octaone] yielded a minimal effective concentration [1] of 0.0001 to 0.001 µM, a minimal effective concentration [2] of 1 to 10 µM and a minimal effective concentration [3] of 0.001 to 0.01 µM.

In the case of `CC(C)C[C@H]1C(=O)O[C@H](Cc2ccc(Cn3nccc3C3CC3)cc2)C(=O)N(C)[C@@H](CC(C)C)C(=O)O[C@H](C)C(=O)N(C)[C@@H](CC(C)C)C(=O)O[C@H](Cc2ccccc2)C(=O)N(C)[C@@H](CC(C)C)C(=O)O[C@H](C)C(=O)N1C` [Example 2-66, (3S,6R,9S,12R,15S,18R,21S,24R)-6-benzyl-18-(4-((5-cyclopropyl-1H-pyrazol-1-yl)methyl)benzyl)-3,9,15,21-tetraisobutyl-4,10,12,16,22,24-hexamethyl-1,7,13,19-tetraoxa-4,10,16,22-tetraazacyclotetracosan-2,5,8,11,14,17,20,23-octaone], the minimal effective concentration [1] is reported as 0.0001 to 0.001 µM, the minimal effective concentration [2] is reported as 1 to 10 µM and the minimal effective concentration [3] is reported as 0.001 to 0.01 µM.

`CC(C)C[C@H]1C(=O)O[C@H](Cc2ccc(Cn3nccc3C(C)C)cc2)C(=O)N(C)[C@@H](CC(C)C)C(=O)O[C@H](C)C(=O)N(C)[C@@H](CC(C)C)C(=O)O[C@H](Cc2ccccc2)C(=O)N(C)[C@@H](CC(C)C)C(=O)O[C@H](C)C(=O)N1C` [Example 2-69, (3S,6R,9S,12R,15S,18R,21S,24R)-6-benzyl-3,9,15,21-tetraisobutyl-18-(4-((5-isopropyl-1H-pyrazol-1-yl)methyl)benzyl)-4,10,12,16,22,24-hexamethyl-1,7,13,19-tetraoxa-4,10,16,22-tetraazacyclotetracosan-2,5,8,11,14,17,20,23-octaone] gave a minimal effective concentration [1] of 0.0001 to 0.001 µM, a minimal effective concentration [2] of 1 to 10 µM and a minimal effective concentration [3] of 0.001 to 0.01 µM.

In the case of `CC(C)C[C@H]1C(=O)O[C@H](Cc2ccc(Cn3cnc(Br)c3)cc2)C(=O)N(C)[C@@H](CC(C)C)C(=O)O[C@H](C)C(=O)N(C)[C@@H](CC(C)C)C(=O)O[C@H](Cc2ccc(Cn3cnc(Br)c3)cc2)C(=O)N(C)[C@@H](CC(C)C)C(=O)O[C@H](C)C(=O)N1C` [Example 6-12, (3S,6R,9S,12R,15S,18R,21S,24R)-6,18-bis(4-((4-bromo-1H-imidazol-1-yl)methyl)benzyl)-3,9,15,21-tetraisobutyl-4,10,12,16,22,24-hexamethyl-1,7,13,19-tetraoxa-4,10,16,22-tetraazacyclotetracosan-2,5,8,11,14,17,20,23-octaone], the minimal effective concentration [1] is reported as no more than 0.0001 µM, the minimal effective concentration [2] is reported as 1 to 10 µM and the minimal effective concentration [3] is reported as 0.001 to 0.01 µM.

In the case of `CC(C)C[C@H]1C(=O)O[C@H](Cc2cccc(Cn3ccnc3Cl)c2)C(=O)N(C)[C@@H](CC(C)C)C(=O)O[C@H](C)C(=O)N(C)[C@@H](CC(C)C)C(=O)O[C@H](Cc2ccc(Cn3ccnc3Cl)cc2)C(=O)N(C)[C@@H](CC(C)C)C(=O)O[C@H](C)C(=O)N1C` [Example 7-9, (3S,6R,9S,12R,15S,18R,21S,24R)-6-(3-((2-chloro-1H-imidazol-1-yl)methyl)benzyl)-18-(4-((2-chloro-1H-imidazol-1-yl)methyl)benzyl)-3,9,15,21-tetraisobutyl-4,10,12,16,22,24-hexamethyl-1,7,13,19-tetraoxa-4,10,16,22-tetraazacyclotetracosan-2,5,8,11,14,17,20,23-octaone], the minimal effective concentration [1] is reported as 0.0001 to 0.001 µM, the minimal effective concentration [2] is reported as 1 to 10 µM and the minimal effective concentration [3] is reported as 0.001 to 0.01 µM.

With `CC(C)C[C@H]1C(=O)O[C@H](Cc2ccc(Cn3ccnc3Br)cc2)C(=O)N(C)[C@@H](CC(C)C)C(=O)O[C@H](C)C(=O)N(C)[C@@H](CC(C)C)C(=O)O[C@H](Cc2ccccc2)C(=O)N(C)[C@@H](CC(C)C)C(=O)O[C@H](C)C(=O)N1C` [Example 8-3, (3S,6R,9S,12R,15S,18R,21S,24R)-6-benzyl-18-[[4-[(2-bromoimidazol-1-yl)methyl]phenyl]methyl]-3,9,15,21-tetraisobutyl-4,10,12,16,22,24-hexamethyl-1,7,13,19-tetraoxa-4,10,16,22-tetrazacyclotetracosane-2,5,8,11,14,17,20,23-octaone] the minimal effective concentration [1] was 0.0001 to 0.001 µM, the minimal effective concentration [2] was 1 to 10 µM and the minimal effective concentration [3] was 0.001 to 0.01 µM.
